Consider two compounds from patent publication US12246011B2, “Radiation mitigator and method of use thereof” (Georgetown University, priority 2016, dated 2025).

In data set [1] the test system is YAMC (normal colonic epithelial cell line). Nature of the data set: Colony forming assay (cell survival) after 4 Gy IR. The following applies: treatment 24 h post-IR at 10 μM, 100 μM and 1 mM, colonies counted at end of 96 h. The format is cell-based, Murine. On the procedure:
(§1) Gamma radiation: YAMC (normal colonic epithelial cell line) were exposed to 4 Gy gamma ionizing radiation (IR) with air pumped into the chamber during exposure. A Gammacell 40 ^137Cs gamma irradiator was used with a dose rate of 0.8 Gy IR per minute. Dosimetry measurements were performed using Fricke Dosimetry systems. Measured absorbance dose was: Central Dose Rate (0.790 Gy/min±2.9%); 3 o'clock position (0.804 Gy/min±3.8%); and 7 o'clock position (0.808 Gy/min±2.7%). The experiments were performed within 6 months of the dosimetry analysis.
Colony forming assay: Colony forming assay is universally recognized as the gold standard method for measuring the effects of radiation, chemotherapeutic drugs on cell viability, and cell survival. […] At the end of 96 h, cells were fixed and counted for number of colonies formed. The number of colonies formed represents the number of cells survived.
Gamma radiation: YAMC (normal colonic epithelial cell line) were exposed to 4 Gy gamma ionizing radiation (IR) with air pumped into the chamber during exposure. A Gammacell 40 ^137Cs gamma irradiator was used with a dose rate of 0.8 Gy IR per minute. Dosimetry measurements were performed using Fricke Dosimetry systems. Measured absorbance dose was: Central Dose Rate (0.790 Gy/min±2.9%); 3 o'clock position (0.804 Gy/min±3.8%); and 7 o'clock position (0.808 Gy/min±2.7%). […]

The next data set concerns C57BL/6 mice. Nature of the data set: Barrier function study (intestinal epithelial permeability to FITC-dextran) after 14 Gy TBI. The format is in vivo. The following applies: three doses of 10 mg/kg body weight per day beginning 24 h post-IR, serum FITC 5 d post-IR. On the procedure: as §1, with “radiation: 7-week-old C57BL/6 mice” for “radiation: YAMC (normal colonic epithelial cell line)”, “to total body irradiation (TBI) 14” for “to 4”, “chamber during.” for “chamber during exposure.”, “analysis. All IR treatments were begun in the morning. […] All animals received easy access to liquid gel food and water in the cage.” for “analysis.”
Barrier function study: Two hours before euthanasia (5 d post-IR), each mouse was orally administered (gavage) with 100 μL of FITC-dextran (FITC dextran 4; MW 4000) at a dose of 80 mg/100 g body weight. Serum analysis of FITC concentration was performed in triplicate using Synergy Bio TEK plate reader.
Gamma radiation: 7-week-old C57BL/6 mice were exposed to total body irradiation (TBI) 14 Gy gamma ionizing radiation (IR) with air pumped into the chamber during. A Gammacell 40 ^137Cs gamma irradiator was used with a dose rate of 0.8 Gy IR per minute. […] Measured absorbance dose was: Central Dose Rate (0.790 Gy/min±2.9%); 3 o'clock position (0.804 Gy/min±3.8%); and 7 o'clock position (0.808 Gy/min±2.7%). […]

Data set [2] has as its system YAMC (normal colonic epithelial cell line). Briefly: Clonogenic assay for self-renewal (spheroid formation) after 4 Gy IR. The format is cell-based, Murine. The following applies: treatment 24 h post-IR at 10 μM, 100 μM and 1 mM, spheroids counted at end of 192 h. On the procedure: as §1
Clonogenic assay for self-renewal: Self-renewal is the hallmark for stem cells or stem-like cells. Clonogenic assay or clonal expansion of single cell into spheroids/organoids is the reputed method to analyze cell self-renewal. […] At the end of 192 h, spheroids were counted for quantitative assessment of the number of spheroids formed.
Gamma radiation: YAMC (normal colonic epithelial cell line) were exposed to 4 Gy gamma ionizing radiation (IR) with air pumped into the chamber during exposure. […] Measured absorbance dose was: Central Dose Rate (0.790 Gy/min±2.9%); 3 o'clock position (0.804 Gy/min±3.8%); and 7 o'clock position (0.808 Gy/min±2.7%). […]
Clonogenic assay for self-renewal: Self-renewal is the hallmark for stem cells or stem-like cells. […] At the end of 192 h, spheroids were counted for quantitative assessment of the number of spheroids formed. […]

The conditions of data set [3]: largest among ARBs; cited from earlier work.

Each structure is given as a SMILES string.

Regarding `CC1(C)CC(O)CC(C)(C)N1[O]` [tempol, 4-hydroxy-2,2,6,6-tetramethylpiperidin-1-oxyl], the “YAMC cell survival (number of colonies formed) compared to vehicle treatment” value in data set [1] was “significantly increased”. Besides, in the data set on C57BL/6 mice, the “intestinal epithelial permeability to FITC-dextran versus vehicle control” value is recorded as “essentially the same”. In addition, in data set [2], the “self-renewal ability of YAMC cells (number of spheroids formed) compared to vehicle treatment” value was “significantly increased”.
As to `CCCc1nc2c(C)cc(-c3nc4ccccc4n3C)cc2n1Cc1ccc(-c2ccccc2C(=O)O)cc1` [telmisartan, Telmisartan], the “YAMC cell survival (number of colonies formed) compared to vehicle treatment” value in data set [1] is “significantly increased”. Besides, the “intestinal epithelial permeability to FITC-dextran versus vehicle control” value with C57BL/6 mice was “essentially the same”. Further, in data set [3], the volume of distribution is 500 L. Further, in data set [2], the “self-renewal ability of YAMC cells (number of spheroids formed) compared to vehicle treatment” value is on record as “significantly increased”.
